According to patent publication US11667634B2, “Inhibitors of RAF kinases” (Kinnate Biopharma Inc., priority 2019, dated 2023):

Biological target: human RAF1 (Homo sapiens (Human), UniProt P04049)
Experiment: Protein kinase assay (radiometric 33P-ATP, MEK1 (K97R) substrate)
Type: biochemical
Settings: substrate human MEK1 (K97R) 3 micromolar, ATP 10 micromolar, 3-fold dilution from 10 micromolar, read-out: RAF-1 IC50
Description: Protein kinase assay: Assay platform was used to measure kinase/inhibitor interactions as described previously (Anastassiadis et al., 2011). In brief, for each reaction, kinase and substrate were mixed in a buffer containing 20 mM HEPES (pH 7.5), 10 mM MgCl2, 1 mM EGTA, 0.02% Brij35, 0.02 mg/mL BSA, 0.1 mM Na3VO4, 2 mM DTT, and 1% DMSO. All compounds were solubilized in DMSO. Compounds were then added to each reaction mixture via acoustic dispense using an ECHO 550 nanoliter dispenser. For human RAF1 testing, human MEK1 (K97R) was used as a substrate at a concentration of 3 micromolar, with a final ATP concentration of 10 micromolar. For human BRAF testing, human MEK1 (K97R) was used as a substrate at 1 micromolar concentration, with a final ATP concentration of 25 micromolar. […] After a 20-min incubation, ATP (Sigma-Aldrich, St. Louis, Mo. 63178) and [g33P] ATP (specific activity 10 microCi/microliter) purchased at PerkinElmer (Boston, Mass., 02118 Cat #BLU 003H250UC) were added at a final total concentration of 10 mM. Reactions were carried out at room temperature for 2 hr and spotted onto P81 ion exchange cellulose chromatography paper (Reaction Biology). Filter paper was washed in 0.75% phosphoric acid to remove unincorporated ATP. The percent remaining kinase activity relative to a vehicle-containing (DMSO) kinase reaction was calculated for each kinase/inhibitor pair. IC50 values were calculated using Prism 5 (GraphPad).

Chain of human RAF1 (P04049 whole entry): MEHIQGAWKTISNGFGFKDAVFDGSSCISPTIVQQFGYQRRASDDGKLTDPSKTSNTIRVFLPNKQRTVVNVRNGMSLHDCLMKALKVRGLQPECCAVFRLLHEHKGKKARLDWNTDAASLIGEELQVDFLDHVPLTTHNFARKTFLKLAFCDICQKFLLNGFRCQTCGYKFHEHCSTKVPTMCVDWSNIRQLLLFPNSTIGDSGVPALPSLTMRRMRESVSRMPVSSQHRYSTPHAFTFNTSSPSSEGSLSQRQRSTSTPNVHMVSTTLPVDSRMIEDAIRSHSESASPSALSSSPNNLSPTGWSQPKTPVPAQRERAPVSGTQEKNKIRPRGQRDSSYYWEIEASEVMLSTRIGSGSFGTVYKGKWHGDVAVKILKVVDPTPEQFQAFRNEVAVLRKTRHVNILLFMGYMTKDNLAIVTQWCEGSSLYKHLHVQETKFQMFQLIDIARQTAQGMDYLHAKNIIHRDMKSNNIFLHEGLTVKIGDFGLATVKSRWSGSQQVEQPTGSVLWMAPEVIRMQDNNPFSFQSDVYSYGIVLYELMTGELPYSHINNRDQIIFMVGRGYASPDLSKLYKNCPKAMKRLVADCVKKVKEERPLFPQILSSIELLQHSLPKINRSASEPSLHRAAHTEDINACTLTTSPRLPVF

Row | Compound | IC50 [nM]
1 | CNc1ncc2cc(-c3cc(NC(=O)N4CCOC(C(F)(F)F)C4)ccc3C)cnc2n1 (stereo in doubt) [Example 58, (2S)-N-[4-methyl-3-2-(methylamino)pyrido[2,3-d]pyrimidin-6-yl]phenyl]-2-(trifluoromethyl)morpholine-4-carboxamide] | ≤ 10
2 | CNc1ncc2cc(-c3cc(NC(=O)N4CC[C@H](OC(F)F)C4)c(F)cc3C)cnc2n1 [Example 28, (S)-3-(difluoromethoxy)-N-(2-fluoro-4-methyl-5-(2-(methylamino)pyrido[2,3-d]pyrimidin-6-yl)phenyl)pyrrolidine-1-carboxamide] | ≤ 10
3 | C#Cc1nc2nc(NC)ncc2cc1-c1cc(NC(=O)c2ccnc(C(F)(F)F)c2)ccc1C [Example 67, N-[3-[7-ethynyl-2-(methylamino)pyrido[2,3-d]pyrimidin-6-yl]-4-methylphenyl]-2-(trifluoromethyl)pyridine-4-carboxamide] | ≤ 10
